The values that follow come from US20260077051A1, “COMPOUNDS FOR THE DEGRADATION OF EGFR KINASE” (BeOne Medicines I GmbH, priority 2023, published 2026).

Assay [1] concerns the target T1, EGFR L858R (BaF3-L858R cells) (Homo sapiens, UniProt P00533, L858R).
T1 construct: host or cells: BaF3
Description: EGFR degradation in BaF3-L858R cells (HTRF assay). The format is cell-based. The following applies: 16 h treatment; for DC50: IC50(DC50) of EGFR degradation; for Dmax: maximum percentage of inhibition (degradation). In short, it runs like this:
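BaF3-L858R cells were exposed for 16 h at 37° C to 8 doses, 5-fold dilutions starting at 10 uM final, in 0.1% DMSO medium. Lysates were incubated overnight with HTRF antibodies and read at 665/620 nm. Degradation was taken relative to DMSO control, and DC50 and Dmax came from a four-parameter fit.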
A general note: In TR-FRET formats the signal depends on donor and acceptor labels being close together.

In assay [2] the target is T2, EGFR-L858R/C797S (H1975-clone #8 cells) (Homo sapiens, UniProt P00533, C797S/L858R).
T2 construct: expressed in transfected cells; host or cells: H1975 (lentiviral transduction, endogenous EGFR knocked out, single clone #8)
Description: EGFR degradation in H1975-clone#8 (L858R/C797S) cells (HTRF assay). Conditions: 16 h treatment; for DC50: IC50(DC50) of EGFR degradation; for Dmax: maximum percentage of inhibition (degradation). The format is cell-based. The method in brief:
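H1975 cells engineered to carry only homozygous exogenous EGFR L858R/C797S (clone #8) treated 16 h at 37 °C with compound, 8 doses from 10 uM in 5-fold steps, 0.1% DMSO. Remaining EGFR in lysates measured by HTRF; degradation percentage relative to DMSO control, DC50 and Dmax from 4-parameter fit.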

T1 sequence (P00533 25-1210 L858R): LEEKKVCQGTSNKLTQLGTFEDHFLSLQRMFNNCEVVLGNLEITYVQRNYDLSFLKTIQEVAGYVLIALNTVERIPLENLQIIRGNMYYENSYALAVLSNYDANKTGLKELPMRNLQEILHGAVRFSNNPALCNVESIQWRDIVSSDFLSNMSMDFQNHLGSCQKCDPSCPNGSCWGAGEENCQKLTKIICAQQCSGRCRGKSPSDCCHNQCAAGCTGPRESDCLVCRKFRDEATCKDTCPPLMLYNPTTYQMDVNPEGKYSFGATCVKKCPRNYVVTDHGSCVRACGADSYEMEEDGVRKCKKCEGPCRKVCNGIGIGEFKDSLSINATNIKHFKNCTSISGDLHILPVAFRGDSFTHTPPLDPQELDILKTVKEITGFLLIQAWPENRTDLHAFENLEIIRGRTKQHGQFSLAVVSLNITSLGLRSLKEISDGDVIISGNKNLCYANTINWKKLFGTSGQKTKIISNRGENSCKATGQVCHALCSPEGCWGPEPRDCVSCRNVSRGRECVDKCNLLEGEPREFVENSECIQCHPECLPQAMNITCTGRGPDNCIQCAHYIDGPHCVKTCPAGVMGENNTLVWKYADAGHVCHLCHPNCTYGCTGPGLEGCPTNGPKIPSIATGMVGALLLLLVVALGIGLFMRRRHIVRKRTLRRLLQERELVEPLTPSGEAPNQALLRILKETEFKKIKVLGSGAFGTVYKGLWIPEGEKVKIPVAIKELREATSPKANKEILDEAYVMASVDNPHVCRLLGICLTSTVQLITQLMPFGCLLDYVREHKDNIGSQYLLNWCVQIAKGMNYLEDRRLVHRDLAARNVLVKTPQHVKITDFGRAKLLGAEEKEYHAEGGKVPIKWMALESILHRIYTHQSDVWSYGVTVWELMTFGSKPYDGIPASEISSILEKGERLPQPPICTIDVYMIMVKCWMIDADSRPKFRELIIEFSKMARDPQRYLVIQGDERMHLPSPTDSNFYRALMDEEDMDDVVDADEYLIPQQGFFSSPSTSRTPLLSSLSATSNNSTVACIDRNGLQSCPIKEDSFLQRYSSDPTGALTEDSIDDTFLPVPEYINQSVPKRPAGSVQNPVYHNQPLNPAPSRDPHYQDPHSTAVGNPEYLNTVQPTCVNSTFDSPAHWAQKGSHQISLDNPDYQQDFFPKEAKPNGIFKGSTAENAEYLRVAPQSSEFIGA
T2 sequence (P00533 25-1210 C797S/L858R): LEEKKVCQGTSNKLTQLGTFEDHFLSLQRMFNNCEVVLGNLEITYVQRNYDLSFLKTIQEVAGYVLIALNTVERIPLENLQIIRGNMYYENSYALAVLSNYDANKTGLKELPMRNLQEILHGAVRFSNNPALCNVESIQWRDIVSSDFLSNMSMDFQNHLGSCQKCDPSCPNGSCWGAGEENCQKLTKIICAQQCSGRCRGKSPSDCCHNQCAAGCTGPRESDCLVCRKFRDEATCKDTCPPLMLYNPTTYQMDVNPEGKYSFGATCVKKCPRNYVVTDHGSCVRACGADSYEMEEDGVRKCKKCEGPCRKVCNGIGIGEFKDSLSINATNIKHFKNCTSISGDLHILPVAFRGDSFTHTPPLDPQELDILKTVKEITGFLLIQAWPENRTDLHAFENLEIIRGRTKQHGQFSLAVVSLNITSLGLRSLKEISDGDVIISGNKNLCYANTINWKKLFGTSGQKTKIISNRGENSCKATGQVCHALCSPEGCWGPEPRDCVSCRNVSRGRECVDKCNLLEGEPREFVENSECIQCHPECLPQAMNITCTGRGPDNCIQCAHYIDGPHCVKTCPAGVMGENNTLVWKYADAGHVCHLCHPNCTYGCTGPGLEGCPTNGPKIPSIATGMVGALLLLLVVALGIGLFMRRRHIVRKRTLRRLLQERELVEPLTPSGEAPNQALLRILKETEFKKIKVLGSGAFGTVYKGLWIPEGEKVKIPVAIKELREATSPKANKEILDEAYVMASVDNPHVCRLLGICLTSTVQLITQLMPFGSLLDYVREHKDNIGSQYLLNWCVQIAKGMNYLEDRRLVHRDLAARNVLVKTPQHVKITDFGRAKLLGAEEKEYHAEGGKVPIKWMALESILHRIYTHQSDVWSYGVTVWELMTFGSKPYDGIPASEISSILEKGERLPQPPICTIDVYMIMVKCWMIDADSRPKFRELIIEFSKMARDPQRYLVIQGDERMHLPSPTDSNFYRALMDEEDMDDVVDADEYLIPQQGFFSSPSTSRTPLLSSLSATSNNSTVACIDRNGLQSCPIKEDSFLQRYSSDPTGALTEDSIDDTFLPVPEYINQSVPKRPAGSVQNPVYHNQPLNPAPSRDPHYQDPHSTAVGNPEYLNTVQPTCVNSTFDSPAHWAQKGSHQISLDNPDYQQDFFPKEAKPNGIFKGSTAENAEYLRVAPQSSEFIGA

Take `Cc1cc2cc(n1)-c1cnn(C)c1OCC[C@H]1C[C@@H]1CN1/C(=N/C2=O)Nc2ccc(N3CCN(CCc4cc(F)c([C@H]5CCC(=O)NC5=O)c(F)c4)C(C4CCOC4)C3)cc21` (stereo partly drawn) [Example 35, (3R)-3-(4-(2-(4-((7^1S,7^2R,E)-1^1,2^6-dimethyl-3-oxo-5^2,5^3-dihydro-1^1H,5^1H-10-oxa-4-aza-5 (2,1)-benzo[d]imidazola-2 (2,4)-pyridina-1 (4,5)-pyrazola-7 (1,2)-cyclopropanacyclodecaphane-5^6-yl)-2-(tetrahydrofuran-3-yl)piperazin-1-yl)ethyl)-2,6-difluorophenyl)piperidine-2,6-dione]: the DC50 in assay [1] turned out to be 22 nM; in assay [2] it was 8.44 nM. The maximal degradation (Dmax) in assay [1] amounted to 59%; in assay [2], 41.4%.
Taken in the same sequence, the figures for `Cc1cc2cc(n1)-c1cnn(C)c1OCC[C@H]1C[C@@H]1CN1/C(=N/C2=O)Nc2ccc(N3CCN(C4CN(C5CCN(c6ccc(C7CCC(=O)NC7=O)nc6C)CC5)C4)C[C@@H]3C)cc21` (stereo partly drawn) [Example 36, 3-(5-(4-(3-((S)-4-((7^1S,7^2R,E)-1^1,2^6-dimethyl-3-oxo-5^2,5^3-dihydro-1^1H,5^1H-10-oxa-4-aza-5 (2,1)-benzo[d]imidazola-2 (2,4)-pyridina-1 (4,5)-pyrazola-7 (1,2)-cyclopropanacyclodecaphane-5^6-yl)-3-methylpiperazin-1-yl)azetidin-1-yl)piperidin-1-yl)-6-methylpyridin-2-yl)piperidine-2,6-dione] were 13.4 nM, 2.61 nM, 68.5% and 41.7%.
In the same order, the values of `Cc1cc2cc(n1)-c1cnn(C)c1OCC[C@H]1C[C@@H]1CN1/C(=N/C2=O)Nc2ccc(N3CCN(C4CN(C5CCN(c6ccc(C7CCC(=O)NC7=O)nc6C)CC5)C4)C[C@H]3C)cc21` (stereo partly drawn) [Example 37, 3-(5-(4-(3-((R)-4-((7^1S,7^2R,E)-1^1,2^6-dimethyl-3-oxo-5^2,5^3-dihydro-1^1H,5^1H-10-oxa-4-aza-5 (2,1)-benzo[d]imidazola-2 (2,4)-pyridina-1 (4,5)-pyrazola-7 (1,2)-cyclopropanacyclodecaphane-5^6-yl)-3-methylpiperazin-1-yl)azetidin-1-yl)piperidin-1-yl)-6-methylpyridin-2-yl)piperidine-2,6-dione] are 7.92 nM, 8.34 nM, 64.5% and 55.9%.
Taken in the same sequence, the figures for `Cc1cc2cc(n1)-c1cnn(C)c1OCC[C@]1(C)C[C@H]1CN1/C(=N/C2=O)Nc2ccc(N3CCN([C@@H]4CCN(c5cc(F)c(C6CCC(=O)NC6=O)nc5C)C[C@@H]4F)CC3)cc21` (stereo partly drawn) [Example 43, 3-(3-fluoro-5-((3S,4R)-3-fluoro-4-(4-((7^1R,7^2S,E)-1^1,2^6,7^2-trimethyl-3-oxo-5^2,5^3-dihydro-1^1H,5^1H-10-oxa-4-aza-5 (2,1)-benzo[d]imidazola-2 (2,4)-pyridina-1 (4,5)-pyrazola-7 (1,2)-cyclopropanacyclodecaphane-5^6-yl)piperazin-1-yl)piperidin-1-yl)-6-methylpyridin-2-yl)piperidine-2,6-dione] were 1.74 nM, 2.81 nM, 86.2% and 88.8%.
In the case of `Cc1cc2cc(n1)-c1cnn(C)c1OCC[C@]1(C)C[C@H]1CN1/C(=N/C2=O)Nc2ccc(N3CCN([C@@H]4CCN(c5ccc(C6CCC(=O)NC6=O)nc5C)C[C@@H]4F)CC3)cc21` (stereo partly drawn) [Example 49, 3-(5-((3S,4R)-3-fluoro-4-(4-((7^1R,7^2S,E)-1^1,2^6,7^2-trimethyl-3-oxo-5^2,5^3-dihydro-1^1H,5^1H-10-oxa-4-aza-5 (2,1)-benzo[d]imidazola-2 (2,4)-pyridina-1 (4,5)-pyrazola-7 (1,2)-cyclopropanacyclodecaphane-5^6-yl)piperazin-1-yl)piperidin-1-yl)-6-methylpyridin-2-yl)piperidine-2,6-dione], in assay [1], half-maximal degradation (DC50) was put at 0.418 nM and the Dmax worked out at 86.7%. For the same compound, in assay [2], the DC50 is 0.942 nM and the greatest degradation seen (Dmax) was found to be 86.9%.

Broadly, the DC50 is the midpoint of the concentration-degradation curve. Low readings indicate a more potent degrader, high ones a less potent degrader. Broadly, the Dmax is the greatest extent of degradation seen.
